# Measured values as given in ChEMBL document CHEMBL1141380 (J Med Chem, 2007).
# Columns and labels:
# [1] = target: Vascular endothelial growth factor receptor 2 (Homo sapiens, UniProt P35968)
# Description: Inhibition of KDR by HTRF assay
# [2] = Oral bioavailability in Sprague-Dawley rat at 10 mg/kg, po; format: ADME, organism-based; conditions: in vivo
# Angiopoietin-1 receptor [3] = target: T1, Angiopoietin-1 receptor (Homo sapiens, UniProt Q02763); experiment: Inhibition of Tie2 by HTRF assay
# [4] = target: Vascular endothelial growth factor receptor 2 and tyrosine-protein kinase TIE-2 (KDR and TIE2) (Homo sapiens) (UniProt P35968+Q02763); experiment: Selectivity for Tie2 over KDR; format: protein assay
# Angiopoietin-1 receptor [5] = target: T1, Angiopoietin-1 receptor; experiment: Inhibition of angiopoietin-1-stimulated Tie2 phosphorylation in EA.hy926 cells; format: functional, cell-based
# [6] = Clearance in iv dosed rat; format: ADME, organism-based; conditions: in vivo
# [7] = Solubility in 0.01N HCl; format: physicochemical
# [8] = target: Tyrosine-protein kinase JAK3 (Homo sapiens, UniProt P52333); experiment: Inhibition of Jak3
# [9] = AUC (0-infinity) in Sprague-Dawley rat at 10 mg/kg, po; format: ADME, organism-based; parameters: time infinity, dose 10 mg/kg, route oral; conditions: plasma
# [10] = target: Tyrosine-protein kinase ABL1 (Homo sapiens, UniProt P00519); experiment: Inhibition of Abl
# [11] = Plasma concentration in CD1 NU/NU mouse at 100 mg/kg after 8 hrs; format: ADME, organism-based; parameters: dose 100 mg/kg
# [12] = target: Tyrosine-protein kinase Lyn (Homo sapiens, UniProt P07948); experiment: Inhibition of Lyn
# [13] = target: RAC-alpha serine/threonine-protein kinase (Homo sapiens, UniProt P31749); experiment: Inhibition of PKBalpha
# [14] = target: Proto-oncogene tyrosine-protein kinase receptor Ret (Homo sapiens, UniProt P07949); experiment: Inhibition of RET
# [15] = Plasma protein binding in rat; format: ADME, cell-free; conditions: read-out: PPB (converted)
# [16] = Volume of distribution in Sprague-Dawley rat at 1 mg/kg, iv; format: ADME, organism-based; parameters: dose 1 mg/kg, route intravenous; conditions: in vivo, read-out: Vss
# [17] = target: Mitogen-activated protein kinase 10 (Homo sapiens, UniProt P53779); experiment: inhibition of JNK3
# [18] = target: Tyrosine-protein kinase ITK/TSK (Homo sapiens, UniProt Q08881); experiment: Inhibition of Itk
# [19] = target: Insulin-like growth factor 1 receptor (Homo sapiens, UniProt P08069); experiment: Inhibition of IGFR1
# [20] = target: Mitogen-activated protein kinase 14 (Homo sapiens, UniProt Q16539); experiment: Inhibition of p38alpha
# [21] = target: High affinity nerve growth factor receptor (Homo sapiens, UniProt P04629); experiment: Inhibition of TrkA
# Aurora kinase A = Aurora kinase A (Homo sapiens, UniProt O14965); experiment: Inhibition of AurA
# [22] = target: Cyclin-dependent kinase 5 (Homo sapiens, UniProt Q00535); experiment: Inhibition of CDK5
# [23] = Clearance in Sprague-Dawley rat at 1 mg/kg, iv; format: ADME, organism-based; parameters: dose 1 mg/kg, route intravenous; conditions: in vivo
# [24] = target: Tyrosine-protein kinase SYK (Homo sapiens, UniProt P43405); experiment: Inhibition of SYK
# [25] = Solubility in simulated intestinal fluid at pH 6.8; format: physicochemical
# [26] = target: Tyrosine-protein kinase Fgr (Homo sapiens, UniProt P09769); experiment: Inhibition of Fgr
# [27] = Half life in Sprague-Dawley rat at 1 mg/kg, iv; format: ADME, organism-based; parameters: dose 1 mg/kg, route intravenous; conditions: in vivo
# [28] = Tmax in Sprague-Dawley rat at 10 mg/kg, po; format: ADME, organism-based; parameters: dose 10 mg/kg, route oral; conditions: in vivo
# [29] = Plasma concentration in CD1 NU/NU mouse at 100 mg/kg after 12 hrs; format: ADME, organism-based; parameters: dose 100 mg/kg
# [30] = Dissociation constant, pKa of the compound; format: physicochemical
# [31] = target: Angiopoietin-1 receptor (Mus musculus) (UniProt Q02858); experiment: Inhibition of angiopoietin-1-induced Tie2 phosphorylation in CD1 NU/NU mouse at 100 mg/kg after 8 hrs; format: functional, organism-based; parameters: dose 100 mg/kg
# [32] = Plasma concentration in CD1 NU/NU mouse at 100 mg/kg after 3 hrs; format: ADME, organism-based; parameters: dose 100 mg/kg
# [33] = Cmax in Sprague-Dawley rat at 10 mg/kg, po; format: ADME, organism-based; parameters: dose 10 mg/kg, route oral; conditions: in vivo
# [34] = target: Macrophage colony-stimulating factor 1 receptor (Homo sapiens, UniProt P07333); experiment: Inhibition of c-fms
# [35] = target: Angiopoietin-1 receptor (Mus musculus) (UniProt Q02858); experiment: Inhibition of angiopoietin-1-induced Tie2 phosphorylation in CD1 NU/NU mouse at 100 mg/kg after 3 hrs; format: functional, organism-based; parameters: dose 100 mg/kg
# Ephrin type-B receptor 4 = Ephrin type-B receptor 4 (Homo sapiens, UniProt P54760); experiment: Inhibition of EPHB4
# [36] = target: Proto-oncogene tyrosine-protein kinase Src (Homo sapiens, UniProt P12931); experiment: inhibition of Src
# [37] = target: Tyrosine-protein kinase Lck (Homo sapiens, UniProt P06239); experiment: Inhibition of Lck
# [38] = Solubility in phosphate buffer at pH 7.0; format: physicochemical
# [39] = target: Tyrosine-protein kinase CSK (Homo sapiens, UniProt P41240); experiment: Inhibition of CSK
# [40] = Plasma protein binding in mouse; format: ADME, cell-free; conditions: read-out: PPB (converted)
# [41] = target: Platelet-derived growth factor receptor beta (Homo sapiens, UniProt P09619); experiment: Inhibition of PDGFR
# [42] = target: Tyrosine-protein kinase ZAP-70 (Homo sapiens, UniProt P43403); experiment: Inhibition of ZAP70
# [43] = target: Mast/stem cell growth factor receptor Kit (Homo sapiens, UniProt P10721); experiment: Inhibition of cKit
# T1 sequence (Q02763 whole entry): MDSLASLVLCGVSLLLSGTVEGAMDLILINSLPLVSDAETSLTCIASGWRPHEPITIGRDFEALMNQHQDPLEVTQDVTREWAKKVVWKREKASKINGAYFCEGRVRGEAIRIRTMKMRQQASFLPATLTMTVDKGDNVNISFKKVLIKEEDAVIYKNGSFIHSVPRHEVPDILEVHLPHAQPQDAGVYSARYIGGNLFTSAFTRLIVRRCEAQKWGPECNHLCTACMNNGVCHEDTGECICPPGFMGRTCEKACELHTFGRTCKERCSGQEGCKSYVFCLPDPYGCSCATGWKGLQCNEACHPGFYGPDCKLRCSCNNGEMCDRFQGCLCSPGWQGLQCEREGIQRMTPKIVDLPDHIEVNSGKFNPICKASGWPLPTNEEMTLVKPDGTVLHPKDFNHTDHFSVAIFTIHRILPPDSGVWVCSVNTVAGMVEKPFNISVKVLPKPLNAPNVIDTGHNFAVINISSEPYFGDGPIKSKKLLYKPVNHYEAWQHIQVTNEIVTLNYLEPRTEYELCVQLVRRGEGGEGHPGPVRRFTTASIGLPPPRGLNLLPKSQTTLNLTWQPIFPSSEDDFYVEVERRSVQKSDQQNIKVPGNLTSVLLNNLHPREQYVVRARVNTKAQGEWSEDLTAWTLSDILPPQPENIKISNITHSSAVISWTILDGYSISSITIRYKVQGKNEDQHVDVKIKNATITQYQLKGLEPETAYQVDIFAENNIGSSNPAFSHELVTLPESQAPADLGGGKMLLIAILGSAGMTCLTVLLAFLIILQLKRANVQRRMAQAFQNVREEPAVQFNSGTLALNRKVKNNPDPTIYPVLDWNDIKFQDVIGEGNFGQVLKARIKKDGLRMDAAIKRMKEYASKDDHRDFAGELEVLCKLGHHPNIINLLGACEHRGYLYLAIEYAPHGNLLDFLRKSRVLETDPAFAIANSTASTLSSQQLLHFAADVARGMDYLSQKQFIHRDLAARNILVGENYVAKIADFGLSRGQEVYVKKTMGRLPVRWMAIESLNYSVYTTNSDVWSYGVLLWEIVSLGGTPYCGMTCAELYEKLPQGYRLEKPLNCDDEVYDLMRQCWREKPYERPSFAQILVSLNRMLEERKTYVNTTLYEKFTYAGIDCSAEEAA
# Vascular endothelial growth factor receptor 2, sequence (P35968 whole entry): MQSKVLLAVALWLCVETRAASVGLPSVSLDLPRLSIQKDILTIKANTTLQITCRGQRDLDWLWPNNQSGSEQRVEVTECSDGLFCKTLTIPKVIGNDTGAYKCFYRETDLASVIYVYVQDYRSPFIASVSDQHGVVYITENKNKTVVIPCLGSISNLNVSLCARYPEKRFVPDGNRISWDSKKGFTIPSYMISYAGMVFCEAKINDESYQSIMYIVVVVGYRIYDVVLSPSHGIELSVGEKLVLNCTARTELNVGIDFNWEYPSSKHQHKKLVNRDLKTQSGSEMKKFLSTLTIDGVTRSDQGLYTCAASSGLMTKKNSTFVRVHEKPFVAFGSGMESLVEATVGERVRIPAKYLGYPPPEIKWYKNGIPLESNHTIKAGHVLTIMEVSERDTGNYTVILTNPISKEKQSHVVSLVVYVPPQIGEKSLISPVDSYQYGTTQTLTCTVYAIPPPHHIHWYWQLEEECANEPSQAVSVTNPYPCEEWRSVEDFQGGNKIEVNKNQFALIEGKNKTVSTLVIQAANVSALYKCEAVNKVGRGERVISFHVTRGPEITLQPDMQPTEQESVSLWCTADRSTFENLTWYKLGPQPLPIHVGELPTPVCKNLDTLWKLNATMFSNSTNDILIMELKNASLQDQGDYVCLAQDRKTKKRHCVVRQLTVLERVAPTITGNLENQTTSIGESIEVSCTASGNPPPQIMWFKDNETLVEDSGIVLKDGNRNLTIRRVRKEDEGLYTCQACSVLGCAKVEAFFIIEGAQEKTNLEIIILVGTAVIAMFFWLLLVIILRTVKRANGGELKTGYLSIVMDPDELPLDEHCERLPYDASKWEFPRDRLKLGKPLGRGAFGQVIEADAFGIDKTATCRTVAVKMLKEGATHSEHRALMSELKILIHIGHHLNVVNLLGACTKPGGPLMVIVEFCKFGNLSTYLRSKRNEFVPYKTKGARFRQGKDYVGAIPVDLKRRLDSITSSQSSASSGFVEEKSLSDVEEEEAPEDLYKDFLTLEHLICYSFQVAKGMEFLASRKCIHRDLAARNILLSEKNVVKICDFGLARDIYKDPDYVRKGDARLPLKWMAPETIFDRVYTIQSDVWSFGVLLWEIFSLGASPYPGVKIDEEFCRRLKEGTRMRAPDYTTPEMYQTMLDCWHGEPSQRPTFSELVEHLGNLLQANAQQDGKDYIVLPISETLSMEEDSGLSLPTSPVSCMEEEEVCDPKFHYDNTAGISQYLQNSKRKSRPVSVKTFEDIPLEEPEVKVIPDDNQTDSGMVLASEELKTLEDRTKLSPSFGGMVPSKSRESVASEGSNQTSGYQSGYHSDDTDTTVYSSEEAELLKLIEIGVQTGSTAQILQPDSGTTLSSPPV
# Proto-oncogene tyrosine-protein kinase Src, sequence (P12931 2-536 limits assumed): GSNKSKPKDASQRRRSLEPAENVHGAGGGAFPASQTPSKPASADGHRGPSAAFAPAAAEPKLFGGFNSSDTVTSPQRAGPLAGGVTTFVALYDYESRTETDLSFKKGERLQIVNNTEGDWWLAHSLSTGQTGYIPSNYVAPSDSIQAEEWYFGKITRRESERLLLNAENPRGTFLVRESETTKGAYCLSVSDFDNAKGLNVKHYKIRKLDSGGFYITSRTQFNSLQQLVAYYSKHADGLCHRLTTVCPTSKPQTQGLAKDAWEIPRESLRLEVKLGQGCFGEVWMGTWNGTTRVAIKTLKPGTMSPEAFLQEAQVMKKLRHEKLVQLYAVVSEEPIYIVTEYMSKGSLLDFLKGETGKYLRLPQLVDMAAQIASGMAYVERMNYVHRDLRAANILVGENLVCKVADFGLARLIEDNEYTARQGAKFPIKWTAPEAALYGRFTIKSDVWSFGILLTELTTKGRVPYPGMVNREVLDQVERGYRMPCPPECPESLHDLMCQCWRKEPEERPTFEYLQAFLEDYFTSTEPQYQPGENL
# Vascular endothelial growth factor receptor 2 and tyrosine-protein kinase TIE-2 (KDR and TIE2) (Homo sapiens), sequence (P35968 whole entry, looked up): as the sequence (P35968 whole entry) above
# Vascular endothelial growth factor receptor 2 and tyrosine-protein kinase TIE-2 (KDR and TIE2) (Homo sapiens), sequence (Q02763 whole entry, looked up): as the sequence (Q02763 whole entry) above
# Mitogen-activated protein kinase 14, sequence (Q16539 whole entry): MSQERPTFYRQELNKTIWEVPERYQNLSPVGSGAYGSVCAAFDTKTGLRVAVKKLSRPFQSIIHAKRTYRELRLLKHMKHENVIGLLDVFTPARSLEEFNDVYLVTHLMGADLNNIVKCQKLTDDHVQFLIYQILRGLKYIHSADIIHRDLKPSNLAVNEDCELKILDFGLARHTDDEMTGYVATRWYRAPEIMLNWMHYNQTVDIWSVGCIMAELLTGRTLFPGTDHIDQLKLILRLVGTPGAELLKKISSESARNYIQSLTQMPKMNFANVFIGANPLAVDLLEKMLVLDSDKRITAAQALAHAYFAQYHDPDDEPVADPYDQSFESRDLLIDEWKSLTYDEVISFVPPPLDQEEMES
# Ephrin type-B receptor 4, sequence (P54760 whole entry): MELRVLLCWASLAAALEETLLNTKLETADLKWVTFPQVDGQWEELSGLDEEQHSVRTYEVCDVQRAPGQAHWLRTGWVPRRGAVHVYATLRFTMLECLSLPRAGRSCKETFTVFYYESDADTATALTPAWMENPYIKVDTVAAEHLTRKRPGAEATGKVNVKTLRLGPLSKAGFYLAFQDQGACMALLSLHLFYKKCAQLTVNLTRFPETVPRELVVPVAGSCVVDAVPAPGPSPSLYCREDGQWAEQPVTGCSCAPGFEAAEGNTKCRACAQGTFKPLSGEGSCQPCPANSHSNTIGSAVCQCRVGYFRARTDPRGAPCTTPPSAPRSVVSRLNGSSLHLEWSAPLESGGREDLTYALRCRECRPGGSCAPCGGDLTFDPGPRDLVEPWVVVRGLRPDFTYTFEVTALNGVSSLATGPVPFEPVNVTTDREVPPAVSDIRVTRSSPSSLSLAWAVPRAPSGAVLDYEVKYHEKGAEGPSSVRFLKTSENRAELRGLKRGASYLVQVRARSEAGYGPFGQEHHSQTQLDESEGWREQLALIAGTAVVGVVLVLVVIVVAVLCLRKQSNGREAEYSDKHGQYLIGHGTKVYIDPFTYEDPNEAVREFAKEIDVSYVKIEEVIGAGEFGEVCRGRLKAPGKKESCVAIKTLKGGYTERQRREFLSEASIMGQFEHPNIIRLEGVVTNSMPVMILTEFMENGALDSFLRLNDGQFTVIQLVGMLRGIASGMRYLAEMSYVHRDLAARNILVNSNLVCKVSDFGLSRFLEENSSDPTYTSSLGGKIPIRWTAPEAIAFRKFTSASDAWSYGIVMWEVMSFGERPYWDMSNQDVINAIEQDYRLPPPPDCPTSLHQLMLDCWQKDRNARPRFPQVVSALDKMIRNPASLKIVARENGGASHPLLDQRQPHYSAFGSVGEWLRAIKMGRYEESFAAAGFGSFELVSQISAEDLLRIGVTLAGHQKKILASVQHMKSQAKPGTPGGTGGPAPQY
# Tyrosine-protein kinase Lyn, sequence (P07948 whole entry): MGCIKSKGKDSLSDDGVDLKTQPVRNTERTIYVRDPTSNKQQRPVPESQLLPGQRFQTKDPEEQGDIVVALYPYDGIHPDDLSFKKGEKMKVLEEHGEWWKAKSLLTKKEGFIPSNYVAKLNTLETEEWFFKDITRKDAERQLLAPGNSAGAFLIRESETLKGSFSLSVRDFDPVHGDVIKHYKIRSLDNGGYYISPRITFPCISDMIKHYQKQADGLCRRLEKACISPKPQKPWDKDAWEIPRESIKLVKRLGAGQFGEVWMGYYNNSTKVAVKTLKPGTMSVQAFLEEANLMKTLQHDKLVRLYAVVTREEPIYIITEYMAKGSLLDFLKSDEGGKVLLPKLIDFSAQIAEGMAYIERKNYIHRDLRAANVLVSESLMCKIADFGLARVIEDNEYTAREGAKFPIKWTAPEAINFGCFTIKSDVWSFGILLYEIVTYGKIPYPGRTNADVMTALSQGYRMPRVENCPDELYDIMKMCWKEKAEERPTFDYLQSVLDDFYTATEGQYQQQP
smiles,measurement,setting,value
Cc1ccc(C(=O)Nc2cc(C(F)(F)F)ccc2N2CCOCC2)cc1Oc1ncccc1-c1ccncn1,IC50,[1],> 25000 nM
CNc1nccc(-c2cccnc2Oc2ccc(F)c(C(=O)Nc3cc(C(F)(F)F)ccc3N3CCCCC3)c2)n1,bioavailability,[2],0.3%
same,IC50,Angiopoietin-1 receptor [3],40 nM
same,Selectivity ratio,[4],> 500
same,IC50,Angiopoietin-1 receptor [5],244 nM
same,clearance,[6],5.67 mL/min/kg
same,IC50,[1],> 25000 nM
Cc1ccc(C(=O)Nc2cc(C(F)(F)F)ccc2N2CCCCC2)cc1Oc1ncccc1-c1ccncn1,IC50,[1],1300 nM
CNc1nccc(-c2cccnc2Oc2cc(C(=O)Nc3cc(C(F)(F)F)ccc3N3CCCCC3)ccc2Cl)n1,clearance,[6],21.6 mL/min/kg
same,IC50,[1],675 nM
COc1ccc(C2CCCCC2)cc1NC(=O)c1ccc(C)c(Oc2ncccc2-c2ccnc3ccccc23)c1,IC50,Angiopoietin-1 receptor [3],> 25000 nM
same,IC50,[1],> 25000 nM
Cc1ccc(C(=O)Nc2ccc(C(F)(F)F)cc2)cc1Nc1ncccc1-c1ccncn1,solubility,[7],1 µg/mL
same,IC50,Angiopoietin-1 receptor [3],504 nM
same,IC50,[1],177 nM
COc1cc(Nc2ncnc(-c3cccnc3Nc3cccc(C(=O)Nc4ccc(Oc5ccccc5)cc4)c3)n2)cc(OC)c1OC,IC50,Angiopoietin-1 receptor [3],85 nM
same,IC50,[1],38 nM
CNc1nccc(-c2cccnc2Oc2cc(C(=O)Nc3cc(C4CCCCC4)ccc3OC)ccc2C)n1,clearance,[6],58.2 mL/min/kg
same,IC50,[1],70 nM
CNc1ncnc(-c2cccnc2Oc2ccc(F)c(C(=O)Nc3cc(C(F)(F)F)ccc3N(C)CCCN(C)C)c2)n1,solubility,[7],1320 µg/mL
same,IC50,[8],25000 nM
same,bioavailability,[2],31%
same,AUC(0-inf),[9],2640 ng·h/mL
same,IC50,[10],1280 nM
same,concentration at 8 h,[11],3.03 µM
same,IC50,[12],4900 nM
same,IC50,[13],100000 nM
same,IC50,Angiopoietin-1 receptor [3],30 nM
same,IC50,[14],8300 nM
same,fraction unbound,[15],0.07
same,Vd,[16],2.56 L/kg
same,IC50,[17],40000 nM
same,IC50,[18],25000 nM
same,IC50,[19],927 nM
same,IC50,[20],3700 nM
same,IC50,[21],8300 nM
same,IC50,Aurora kinase A,25000 nM
same,IC50,[22],100000 nM
same,clearance,[23],21.7 mL/min/kg
same,IC50,[24],25000 nM
same,solubility,[25],340 µg/mL
same,IC50,[26],8300 nM
same,half-life,[27],1.6 h
same,Tmax,[28],2 h
same,concentration at 12 h,[29],1.59 µM
same,pKa,[30],9.5
same,IC50,Angiopoietin-1 receptor [5],62 nM
same,inhibition,[31],25%
same,concentration at 3 h,[32],3.97 µM
same,Cmax,[33],520 ng/mL
same,clearance,[6],21.7 mL/min/kg
same,IC50,[1],7800 nM
same,IC50,[34],25000 nM
same,inhibition,[35],94%
same,IC50,Ephrin type-B receptor 4,8300 nM
same,IC50,[36],5750 nM
same,IC50,[37],1100 nM
same,solubility,[38],44 µg/mL
same,IC50,[39],25000 nM
same,fraction unbound,[40],0.02
same,IC50,[41],1940 nM
same,IC50,[42],25000 nM
Cc1ccc(C(=O)Nc2cc(C(F)(F)F)ccc2N2CCCCC2)cc1Nc1ncccc1-c1ccncn1,IC50,Angiopoietin-1 receptor [3],181 nM
same,Selectivity ratio,[4],> 100
same,IC50,[1],> 25000 nM
Cc1ccc(C(=O)Nc2cccc(C(F)(F)F)c2)cc1Nc1ncccc1-c1ccncn1,IC50,[12],< 25 nM
same,IC50,[20],< 25 nM
same,IC50,[1],4 nM
same,IC50,[43],< 25 nM
same,IC50,Ephrin type-B receptor 4,< 25 nM
same,IC50,[36],< 25 nM
CNc1ncnc(-c2cccnc2Oc2ccc(F)c(C(=O)Nc3cc(C(F)(F)F)ccc3N3CCCCC3)c2)n1,IC50,[1],> 25000 nM
CNc1nccc(-c2cccnc2Oc2cc(C(=O)Nc3cc(C(F)(F)F)ccc3N3CCCCC3)ccc2C)n1,IC50,[1],461 nM
CNc1nccc(-c2cccnc2Oc2ccc(F)c(C(=O)Nc3cc(C(F)(F)F)ccc3N(C)CCCN(C)C)c2)n1,bioavailability,[2],32%
same,clearance,[6],12 mL/min/kg
same,IC50,[1],46 nM
Cc1ccc(C(=O)Nc2cccc(C(F)(F)F)c2)cc1Oc1ncccc1-c1ccncn1,IC50,[1],59 nM
Cc1ccc(C(=O)Nc2ccccc2)cc1Nc1ncccc1-c1ccncn1,IC50,[1],435 nM
